# Results as given in patent publication US20220064170A1, “BICYCLIC HETEROCYCLIC DERIVATIVES AND THEIR USE AS PHARMACEUTICALS” (Prelude Therapeutics, Incorporated, priority 2018, published 2022).
# Target: T1, MCL-1 (Homo sapiens, UniProt Q07820)
# T1 construct: purchased BPS Bioscience
# Assay: Cell Free Mcl-1:Bim affinity assay (Mcl-1 Bim), fluorescence polarization competition
# Type: binding
# Conditions: 15 nM MCL-1, 5 nM FITC-Bim peptide tracer, 1 hour at room temperature; Ki calculated from IC50 by Nikolovska-Coleska's equation; read-out: BIM_Ki
# Protocol: The binding affinity of each compounds was measured via fluorescence polarization competition assay, in which the compound competes the same binding site with the ligand, and thus lead to dose-dependent anisotropy reduction. The tracer ligand utilized was a fluorescein isothiocyanate labelled peptide (FITC-[…]) derived from Bim (GenScript).
# The assay was carried out in black half-area 96-well NBS plate (Corning), containing 15 nM of MCL-1 (BPS Bioscience), 5 nM of FITC-Bim and 3-fold series diluted test compounds in a total volume of 50 uL of assay buffer (20 mM HEPES, 50 mM NaCl, 0.002% Tween 20 1 mM TCEP and 1% DMSO). The reaction plate was incubated for 1 hour at room temperature. The change of anisotropy is measured by Envision multimode plate reader (PerkinElmer) at emission wavelength 535 nm. Fluorescence polarization was calculated in mP unit and the percentage inhibition was calc. by % inhibition=100×(mPDMSO−mP)/(mPDMSO−mPPC), in which mPDMSO is the DMSO control, and mPPC is the positive control. IC50 values were determined from a 10-point dose response curve by fitting the percent inhibition against compound concentration using the GraphPad Prism software. The inhibition constant Ki was subsequently calculated according Nikolovska-Coleska's equation (Anal. Biochem., 2004, 332, 261),
# Where [I]50 is the concentration of the free inhibitor at 50% inhibition, [L]50 is the concentration of the free labeled ligand at 50% inhibition, [P]0 is the concentration of the free protein at 0% inhibition, and Kd is the dissociation constant of the protein-ligand complex.
# T1 sequence (Q07820 whole entry): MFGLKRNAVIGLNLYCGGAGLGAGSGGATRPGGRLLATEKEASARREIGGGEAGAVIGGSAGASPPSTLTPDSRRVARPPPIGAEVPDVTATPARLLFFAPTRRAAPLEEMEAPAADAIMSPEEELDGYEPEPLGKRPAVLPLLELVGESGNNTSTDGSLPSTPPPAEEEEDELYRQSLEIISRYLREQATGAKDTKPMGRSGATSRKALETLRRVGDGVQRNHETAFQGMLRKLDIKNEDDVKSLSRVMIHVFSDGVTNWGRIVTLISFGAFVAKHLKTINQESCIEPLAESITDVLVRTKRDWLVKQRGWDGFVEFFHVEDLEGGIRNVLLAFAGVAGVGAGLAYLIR
row,Compound,Ki
1,"COc1ccccc1-c1nccc(COc2ccccc2C[C@H](Nc2ncnn3cc(-c4ccc(F)cc4)c(-c4ccc(OCCN5CCN(C)CC5)c(Cl)c4C)c23)C(=O)O)n1 (single isomer, unassigned) [Example 12]",990 nM
2,"(2S)-2-{[(5Ra)-5-[3-Chloro-2-methyl-4-[2-(4-methylpiperazin-1-yl)ethoxy]phenyl]-6-(4-fluorophenyl)pyrrolo[2,1-f][1,2,4]triazin-4-yl]amino}-3-[2-(cyclopropylmethoxy)phenyl]propanoic acid [Example 6]",> 12000 nM
3,"Cc1c(-c2c(-c3ccc(F)cc3)cn3ncnc(O[C@H](Cc4ccccc4OCC4CC4)C(=O)O)c23)ccc(OCCN2CCN(C)CC2)c1Cl (atropisomer, axis not shown; (Sa)) [Example 1, (2R)-2-[(5Sa)-5-[3-Chloro-2-methyl-4-[2-(4-methylpiperazin-1-yl)ethoxy]phenyl]-6-(4-fluoro-phenyl)pyrrolo[2,1-f][1,2,4]triazin-4-yl]oxy-3-[2-(cyclopropylmethoxy)phenyl]propanoic acid]",205 nM
4,COc1ccccc1-c1nccc(COc2ccccc2C[C@H](Nc2ncnn3cc(-c4ccc(F)cc4)c(-c4ccc(OCCN5CCN(C)CC5)c(Cl)c4C)c23)C(=O)O)n1 (racemic) [Example 11],382 nM
5,"COc1ccccc1-c1nccc(COc2ccccc2C[C@@H](Nc2ncnn3cc(-c4ccc(F)cc4)c(-c4ccc(OCCN5CCN(C)CC5)c(Cl)c4C)c23)C(=O)O)n1 (atropisomer, axis not shown; (Ra)) [Example 13, (2R)-2-{[(5Ra)-5-{3-Chloro-2-methyl-4-[2-(4-methylpiperazin-1-yl)ethoxy]phenyl}-6-(4-fluorophenyl)pyrrolo[2,1-f][1,2,4]triazin-4-yl]amino}-3-(2-{[2-(2-methoxyphenyl)pyrimidin-4-yl]methoxy}phenyl)propanoic acid]",0.7 nM

# Further lines, results first:
row,Ki,Compound
1,> 12000 nM,"Cc1c(-c2c(-c3ccc(F)cc3)cn3ncnc(O[C@@H](Cc4ccccc4OCC4CC4)C(=O)O)c23)ccc(OCCN2CCN(C)CC2)c1Cl (atropisomer, axis not shown; (Sa)) [Example 3, (2S)-2-[(5Sa)-5-[3-Chloro-2-methyl-4-[2-(4-methylpiperazin-1-yl)ethoxy]phenyl]-6-(4-fluoro-phenyl)pyrrolo[2,1-f][1,2,4]triazin-4-yl]oxy-3-[2-(cyclopropylmethoxy)phenyl]propanoic acid]"
2,> 12000 nM,"Cc1c(-c2c(-c3ccc(F)cc3)cn3ncnc(O[C@@H](Cc4ccccc4OCC4CC4)C(=O)O)c23)ccc(OCCN2CCN(C)CC2)c1Cl (atropisomer, axis not shown) [Example 2, (2S)-2-[(5R^a)-5-[3-Chloro-2-methyl-4-[2-(4-methylpiperazin-1-yl)ethoxyl]phenyl]-6-(4-fluoro-phenyl)pyrrolo[2,1-f][1,2,4]triazin-4-yl]oxy-3-[2-(cyclopropylmethoxy)phenyl]propanoic acid]"
3,77.7 nM,"Cc1c(-c2c(-c3ccc(F)cc3)cn3ncnc(N[C@H](Cc4ccccc4OCC4CC4)C(=O)O)c23)ccc(OCCN2CCN(C)CC2)c1Cl (single isomer, unassigned) [Example 7]"
4,11.3 nM,"Cc1c(-c2c(-c3ccc(F)cc3)cn3ncnc(O[C@H](Cc4ccccc4OCC4CC4)C(=O)O)c23)ccc(OCCN2CCN(C)CC2)c1Cl (atropisomer, axis not shown; (Ra)) [Example 4, (2R)-2-[(5Ra)-5-[3-Chloro-2-methyl-4-[2-(4-methylpiperazin-1-yl)ethoxy]phenyl]-6-(4-fluoro-phenyl)pyrrolo[2,1-f][1,2,4]triazin-4-yl]oxy-3-[2-(cyclopropylmethoxy)phenyl]propanoic acid]"
5,> 12000 nM,"Cc1c(-c2c(-c3ccc(F)cc3)cn3ncnc(N[C@H](Cc4ccccc4OCC4CC4)C(=O)O)c23)ccc(OCCN2CCN(C)CC2)c1Cl (single isomer, unassigned) [Example 5]"
6,> 12000 nM,"Cc1c(-c2c(-c3ccc(F)cc3)cn3ncnc(N[C@@H](Cc4ccccc4OCC4CC4)C(=O)O)c23)ccc(OCCN2CCN(C)CC2)c1Cl (atropisomer, axis not shown; (Sa)) [Example 8, (2S)-2-{[(5Sa)-5-[3-Chloro-2-methyl-4-[2-(4-methylpiperazin-1-yl)ethoxy]phenyl]-6-(4-fluorophenyl)pyrrolo[2,1-f][1,2,4]triazin-4-yl]amino}-3-[2-(cyclopropylmethoxy)phenyl]-propanoic acid]"
